Laboratory results from the supplement of paper PMC10307832.

Tests used:
Assay in all cases: relative viability (nuclei count vs DMSO), 5 days (fraction); higher = more cells survive
Cediranib + Navitoclax = compound: COc1cc2c(Oc3ccc4[nH]c(C)cc4c3F)ncnc2cc1OCCCN1CCCC1 [Cediranib] + CC1(C)CCC(c2ccc(Cl)cc2)=C(CN2CCN(c3ccc(C(=O)NS(=O)(=O)c4ccc(N[C@H](CCN5CCOCC5)CSc5ccccc5)c(S(=O)(=O)C(F)(F)F)c4)cc3)CC2)C1 [Navitoclax] (partner 0.5 µM)
How it was run: (§1)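 For relative viability, nuclei counts in treated wells were divided by those in vehicle wells. Lung cancer cell lines had been pin-tool dosed in 1536-well plates the day after seeding and cultured for 5 days, then fixed and stained in one step (final 0.05% Triton X-100, 1% formaldehyde, 1 ug/ml Hoechst) and imaged at 4×. Doses were one drug alone or a fixed anchor-drug dose plus five library-drug doses (not always all listed) in √10 steps, and values are duplicate-plate medians.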

Decitabine + Pemetrexed = compound: Nc1ncn([C@H]2C[C@H](O)[C@@H](CO)O2)c(=O)n1 [Decitabine] + Nc1nc2[nH]cc(CCc3ccc(C(=O)N[C@@H](CCC(=O)O)C(=O)O)cc3)c2c(=O)[nH]1 [Pemetrexed] (partner 0.2 µM)
How it was run: as §1

Decitabine + Alpelisib = compound: Nc1ncn([C@H]2C[C@H](O)[C@@H](CO)O2)c(=O)n1 [Decitabine] + Cc1nc(NC(=O)N2CCC[C@H]2C(N)=O)sc1-c1ccnc(C(C)(C)C(F)(F)F)c1 [Alpelisib] (partner 2 µM)
How it was run: as §1

Cediranib + OSI-027 = compound: COc1cc2c(Oc3ccc4[nH]c(C)cc4c3F)ncnc2cc1OCCCN1CCCC1 [Cediranib] + COc1cccc2cc(-c3nc([C@H]4CC[C@H](C(=O)O)CC4)n4ncnc(N)c34)[nH]c12 [OSI-027] (partner 0.5 µM)
How it was run: as §1

| Cell Line | relative viability (Cediranib + Navitoclax; first compound 0.04 µM) | relative viability (Cediranib + Navitoclax; first compound 0.4 µM) | relative viability (Cediranib + Navitoclax; first compound 1.265 µM) | relative viability (Cediranib + Navitoclax; first compound 4 µM) | relative viability (Decitabine + Pemetrexed; first compound 0.04 µM) | relative viability (Decitabine + Pemetrexed; first compound 0.1265 µM) | relative viability (Decitabine + Pemetrexed; first compound 0.4 µM) | relative viability (Decitabine + Pemetrexed; first compound 1.265 µM) | relative viability (Decitabine + Pemetrexed; first compound 4 µM) | relative viability (Decitabine + Alpelisib; first compound 0.04 µM) | relative viability (Decitabine + Alpelisib; first compound 0.1265 µM) | relative viability (Decitabine + Alpelisib; first compound 0.4 µM) | relative viability (Decitabine + Alpelisib; first compound 1.265 µM) | relative viability (Decitabine + Alpelisib; first compound 4 µM) | relative viability (Cediranib + OSI-027; first compound 0.04 µM) | relative viability (Cediranib + OSI-027; first compound 0.4 µM) | relative viability (Cediranib + OSI-027; first compound 1.265 µM) | relative viability (Cediranib + OSI-027; first compound 4 µM) | relative viability (Cediranib + Navitoclax; first compound 0.1265 µM) | relative viability (Cediranib + OSI-027; first compound 0.1265 µM) |
| --- | --- | --- | --- | --- | --- | --- | --- | --- | --- | --- | --- | --- | --- | --- | --- | --- | --- | --- | --- | --- |
| HCC-15 | 0.742 | 0.693 | 0.678 | 0.767 | 0.2 | 0.207 | 0.179 | 0.19 | 0.191 | 0.799 | 0.773 | 0.441 | 0.438 | 0.302 | 0.625 | 0.674 | 0.692 | 0.717 |  |  |
| HCC-44 | 0.972 | 1.01 | 0.965 | 1.11 | 0.638 | 0.632 | 0.547 | 0.595 | 0.548 | 0.66 | 0.779 | 0.253 | 0.462 | 0.336 |  | 0.447 | 0.473 | 0.619 |  |  |
| HCC-78 | 0.934 | 0.764 | 0.762 | 0.758 | 0.902 | 1.18 | 0.874 | 0.825 | 0.864 | 0.324 | 0.293 | 0.285 | 0.204 | 0.247 | 0.356 | 0.376 | 0.311 | 0.356 | 0.824 | 0.448 |
| HCC-366 | 1.07 | 1.11 | 1.07 | 1.07 | 0.16 | 0.115 | 0.0833 | 0.0595 | 0.0583 | 0.455 | 0.597 | 0.31 | 0.133 | 0.0897 | 0.933 | 0.841 | 0.84 | 1.07 | 0.983 | 0.877 |
| HCC-827 | 1.02 | 1.02 | 1.04 | 1.1 | 0.161 | 0.585 | 0.198 | 0.202 | 0.219 |  | 0.426 | 0.356 | 0.279 | 0.311 | 0.751 | 0.737 | 0.74 | 0.671 |  |  |
| IA-LM | 0.875 | 0.652 | 0.672 | 1.09 |  |  |  |  |  | 0.464 | 0.406 | 0.297 | 0.207 | 0.152 |  |  |  |  | 0.921 |  |
| LCLC-103H |  |  |  |  | 0.426 | 0.362 | 0.284 | 0.379 | 0.333 | 0.888 | 0.958 | 0.487 | 0.858 | 0.64 | 0.469 | 0.474 | 0.467 | 0.504 |  | 0.501 |
| NCI-H358 |  |  |  |  | 0.152 | 0.168 | 0.129 | 0.131 | 0.161 | 0.747 | 0.519 | 0.383 | 0.266 | 0.238 | 0.812 | 0.683 | 0.609 | 0.845 |  | 0.967 |
| NCI-H522 |  |  |  |  | 0.979 | 0.839 | 0.677 | 0.705 | 0.505 |  |  |  |  |  | 0.719 | 0.686 | 0.707 | 0.694 |  | 0.77 |
| NCI-H650 |  |  |  |  | 0.686 | 0.588 | 0.382 | 0.273 | 0.266 | 0.739 | 0.538 | 0.484 | 0.326 | 0.29 | 0.485 | 0.508 | 0.499 | 0.542 |  | 0.521 |
| NCI-H661 |  |  |  |  | 0.779 | 0.657 | 0.572 | 0.481 | 0.404 | 0.432 | 0.44 | 0.313 | 0.246 | 0.342 | 0.734 | 0.71 | 0.686 | 0.669 |  | 0.686 |
| NCI-H727 | 0.404 | 0.38 | 0.532 | 0.583 |  |  |  |  |  | 0.453 | 0.405 | 0.333 | 0.35 | 0.401 |  | 0.523 | 0.468 | 0.617 | 0.409 | 0.486 |
| NCI-H1299 | 1.07 | 1.03 | 1.07 | 1.08 |  |  |  |  |  | 1.07 | 1.07 | 0.985 | 0.904 | 0.899 |  |  |  |  | 1.02 |  |
| NCI-H1563 |  |  |  |  | 0.791 | 0.899 | 1.43 | 0.751 | 0.858 | 1.06 | 0.965 | 1.02 | 0.97 | 0.824 | 0.799 | 0.767 | 0.744 | 0.796 |  | 1.03 |
| NCI-H1623 |  |  |  |  |  |  |  |  |  |  |  |  |  |  | 0.426 | 0.477 | 0.423 | 0.392 |  | 0.442 |
| NCI-H1648 |  |  |  |  | 0.637 | 0.582 | 0.506 | 0.483 | 0.435 |  |  |  |  |  | 0.284 | 0.259 | 0.272 | 0.246 |  |  |
| NCI-H1650 | 1.19 | 1.08 | 1.12 | 0.751 | 0.325 | 0.311 | 0.27 | 0.25 | 0.25 |  |  |  |  |  | 0.781 | 0.589 | 0.577 | 0.436 | 1.29 | 0.596 |
| NCI-H1703 | 1.11 | 0.287 | 0.237 | 0.238 |  |  |  |  |  | 0.248 | 0.27 | 0.259 | 0.246 | 0.195 |  |  |  |  | 0.916 |  |
| NCI-H2342 |  |  |  |  | 0.734 | 0.733 | 0.731 | 0.642 | 0.663 |  |  |  |  |  | 0.615 | 0.659 | 0.549 | 0.508 |  | 0.671 |
| SW 900 |  |  |  |  | 0.415 | 0.411 | 0.345 | 0.277 | 0.303 |  |  |  |  |  | 0.712 | 0.504 | 0.59 | 0.69 |  | 0.642 |
